Publication PMC6691788, “Design and synthesis of phthalazine-based compounds as potent anticancer agents with potential antiangiogenic activity via VEGFR-2 inhibition” (Journal of Enzyme Inhibition and Medicinal Chemistry, 2019)
“Also recorded” adds a separate entry of the source.

How the values were obtained:
Format in all cases: cell-based
HCT-116 cells = experiment: Annexin V-FITC/PI apoptosis detection; settings: HCT-116, at GI50, 24 h and 48 h
Source text: (§1) To further investigate the ability of compounds (7b, 13c and 16a) to induce apoptosis, an Annexin V (conjugated to FITC) apoptosis detection kit was employed. This assay detects phosphatidylserine (PS) expressed on the surface of apoptotic cells and fluoresces green after interacting with the labelled Annexin V. During early apoptosis, membrane asymmetry is lost, and PS translocates from the cytoplasmic side of the membrane to the external leaflet. Propidium iodide (PI), the counter stain used in this assay, has the ability to cross only compromised membranes to intercalate into the DNA. Therefore, PI is used to detect the late stages of apoptosis by the presence of red fluorescence.
(§2) Apoptosis was determined by staining cells with Annexin V–fluorescein isothiocyanate (FITC) and counterstaining with propidium iodide (PI) using the Annexin V–FITC/PI apoptosis detection kit (BD PharMingen, San Diego, CA, USA) according to the manufacturer's instructions. […] The cells then were collected by trypsinization and 0.5 × 10^6 cells were washed twice with phosphate-buffered saline (PBS) and stained with 5 μl Annexin V–FITC and 5 μl PI in 1× binding buffer (BD PharMingen) for 15 minutes at room temperature in the dark. Analyses were performed using FACS Calibur flow cytometer (BD Biosciences, San Jose, CA).

MCF-7 cells [1] = experiment: Cellular and nuclear morphology (light microscopy, Dapi staining); settings: MCF-7, 0.32 µM, 24 and 48 h
Experimental: To further examine the apoptosis inducing effect of 7b, the cellular as well as nuclear morphological changes for MCF-7 cells treated with 7b (0.32 µM) were studied following Dapi staining. The effect of 7b on cell morphology was initially analysed with light microscopy.
(§3) MCF7 cells were cultured on sterile cover slips (Harvard Apparatus, 22 mm2) in sterile six well plates at a density of 2×10^5 cells/well. Twenty-four hours after seeding, cells were exposed to GI50 concentration of compound 7b in fresh serum-free medium. At the end of the exposure, cells attached to cover slips were imaged with a light inverted microscope or washed with PBS and fixed with 3.7% paraformaldhyde for 10 min, permeabilized with 0.1% Triton X-100 in TBST containing 0.01% Tween 20 for 10 min, and blocked for 1 h with 5% goat serum in TBST. The fixed and permeabilized cells were incubated with cleaved caspase-3 rabbit mAb (Cell signaling technology, MA), at a dilution of 1:500, in blocking solution overnight at 4 °C, followed by secondary Cy3-goat anti-Rabbit antibody (Jackson Immuno Research, West Grove, PA) 1:1000 dilution, in the blocking solution for 1 hour, at room temperature. 4',6'-diamidino-2-phenylindole, dihydrochloride (DAPI) (Sigma– Aldrich, St. Louis, MO) was used as counter stain to stain the DNA. […]

[2] = tested on: cleaved caspase-3 in MCF-7 cells; experiment: Cleaved caspase-3 immunostaining; settings: MCF-7, 0.32 µM, 24 h and 48 h
Experimental: Caspase-3 is a member of the cysteine-aspartic acid protease (caspase) family. Sequential activation of caspases is considered as one of the important keys in cellular apoptosis process. […] Cleaved caspase-3 further activates a cascade of caspases that induce cell death.
as §3

MCF-7 cells [3] = experiment: Cell-cycle analysis by flow cytometry; settings: MCF-7, at GI50 concentration, 24 h and 48 h
Source text: The effect of compound (7b and 13c) on the normal cell-cycle progression was characterised using flow cytometric analysis of the DNA ploidy in MCF-7 cells using BD […] ^TM software. […] The observed increase in sub-G1 cell population may imply DNA fragmentation and apoptosis as a potential mechanism for 7b/13c-induced cancer cell death.
The cells then were collected by trypsinization, washed with phosphate buffered saline (PBS), and fixed in ice-cold absolute alcohol. Thereafter, cells were stained, using Cycletest^TM Plus DNA Reagent Kit (BD Biosciences, San Jose, CA), according to the manufacturer’s instructions. Cell cycle distribution was determined using a FACS Calibur flow cytometer (BD Biosciences, San Jose, CA).

MCF-7 cells [4] = experiment: Annexin V-FITC/PI apoptosis detection; settings: MCF-7, at GI50, 24 h and 48 h
Source text: as §1, §2

Row | Structure (SMILES) | induction of apoptosis (Annexin-V positive cells), in words (HCT-116 cells) | cellular and nuclear morphology (MCF-7 cells [1]) | cleaved caspase-3 protein expression [2] | effect on cell-cycle progression (MCF-7 cells [3]) | induction of apoptosis (Annexin-V positive cells), in words (MCF-7 cells [4])
1 | Clc1ccc(Nc2nnc(CNc3ccccc3)c3ccccc23)cc1 [Compound 16a, N-(4-Chlorophenyl)-4-((phenylamino)methyl)phthalazin-1-amine] | increased the percentage of Annexin-V positive cells in lower right quadrant indicating early apoptosis |  |  |  | 
2 | O=C(Nc1ccc(Cl)cc1)Nc1ccc(Oc2nncc3ccccc23)cc1 [Compound 7b, 1–(4-Chlorophenyl)-3–(4-(phthalazin-1-yloxy)phenyl)urea] |  | deteriorated morphological changes including cell rounding, detachment and cellular fragmentation; also recorded: typical apoptotic characteristics; including condensation of chromatin (brightly stained cells), blubbing with the appearance of nuclear fragmentation | concurrent increase in cleaved caspase-3 expression level; also recorded: time-dependent increase in cleaved caspase-3 protein expression; also recorded: increase the expression of cleaved caspase-3 | induce cell cycle arrest at S phase boundary; also recorded: remarkable disruption in cell cycle profile and cell-cycle arrest at S-phase boundary with concurrent time-dependent increase in pre-G cell population | increased the percentage of Annexin-V positive cells indicating an early (lower right quadrant) or late (upper right quadrant) apoptosis in a time-dependent manner
